# Assay results taken from patent US8609652B2, “Method of administering a methylene blue-curcumin analog for the treatment of alzheimer's disease” (DePuy Synthes Products, LLC, priority 2009, dated 2013).
# Entries after “also recorded” stand apart in the source; their conditions may differ. Where a name gives a salt, the structure may show the parent alone. Read-outs that look alike come from different tables or passages of the source.
# Legend:
# [1] = cited from earlier work; for Parent Solubility: parent phenol
# [2] = cited from earlier work; for peak cerebrospinal fluid (CSF) concentration of estradiol: in vivo, 1 mg/kg
# [3] = in vivo, 1 mg/kg
# Description: In some embodiments, the water-soluble ester prodrug is created by reacting the phenolic parent compound with dimethylglycine. The literature reports rendering lipophilic phenolic compounds water soluble by reacting the phenolic parent compound with dimethylglycine. […]. Al-Ghananeem concluded that the prodrug provides for targeted intranasal delivery of 17B-estradiol to the brain.
# [4] = cited from earlier work
# [5] = cited from earlier work; remark: listed apart in the source
# [6] = cited from earlier work; remark: listed apart in the source
# [7] = cited from earlier work; remark: listed apart in the source
# [8] = carbamazepine peak brain tissue concentration by route (Barakat)
# [9] = test system: enzymatic glucuronidation activity; settings: concentrations in excess of about 10 mM; cited from earlier work
# [10] = test system: PC12 cells, βA (1-42); settings: cited from earlier work; for anti-βA (1-42) ED50: Park; for anti-BA (1-42) ED50: Kim
# [11] = test system: PC12 cells; assay: relative potency versus curcumin in in vitro protection of PC12 cells against beta amyloid insult; format: cell-based
# Description: Each of the parent compounds may be obtained by the methods disclosed in Park.
# It is further observed that both of these qualities can be placed into the same molecule (35).
# [12] = test system: PC12 cells, βA (25-35); settings: cited from earlier work; for anti-βA (25-35) ED50: Park, concentration required to achieve 50% cell viability; for anti-BA (25-35) ED50: Kim
# [13] = test system: AD patients' macrophages; settings: cited from earlier work
# [14] = brain tissue concentration after curcumin injection (Wang); settings: injection of 30 mg/kg
# [15] = predicted curcumin levels from transdermal iontophoresis of charged curcumin prodrugs; format: in vivo, human
# [16] = test system: amyloid plaques; settings: injected peripherally, aged Tg mice; cited from earlier work
# [17] = cited from earlier work; for serum Cmax: volunteers
# [18] = target: T1, UGT1A1 (Homo sapiens, UniProt P22309); settings: about one hour after exposure; cited from earlier work
# T1 sequence (P22309 26-533): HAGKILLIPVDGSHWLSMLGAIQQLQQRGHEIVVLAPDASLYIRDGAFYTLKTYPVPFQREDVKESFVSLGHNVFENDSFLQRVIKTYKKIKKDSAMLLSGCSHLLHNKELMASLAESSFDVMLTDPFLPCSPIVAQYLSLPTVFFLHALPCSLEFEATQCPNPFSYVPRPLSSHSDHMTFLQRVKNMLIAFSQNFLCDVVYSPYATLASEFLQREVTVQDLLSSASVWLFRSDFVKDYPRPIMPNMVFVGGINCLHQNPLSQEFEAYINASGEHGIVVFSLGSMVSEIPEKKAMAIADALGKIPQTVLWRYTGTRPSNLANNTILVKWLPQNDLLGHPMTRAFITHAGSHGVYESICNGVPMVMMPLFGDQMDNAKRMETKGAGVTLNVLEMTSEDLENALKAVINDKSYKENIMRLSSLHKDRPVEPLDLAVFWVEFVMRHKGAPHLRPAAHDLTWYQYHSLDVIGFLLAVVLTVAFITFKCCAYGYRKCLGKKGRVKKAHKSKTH
# [19] = target: MRP2 (Homo sapiens, UniProt Q92887); settings: read-out: IC50, MRP-2-mediated transport; Wortelboer; cited from earlier work
# [20] = oral dosing, cited from earlier work
# [21] = target: plasma membrane binding sites for resveratrol; settings: rat brain; cited from earlier work
# [22] = test system: cultured hippocampal cells; settings: cited from earlier work
# [23] = cited from earlier work; remark: listed apart in the source
# [24] = test system: rat hippocampal neurons; settings: cited from earlier work
# [25] = test system: UGT enzymes; settings: cited from earlier work
# [26] = reservoir concentration about 25-50 mg/ml
# Chain of MRP2 (Q92887 whole entry): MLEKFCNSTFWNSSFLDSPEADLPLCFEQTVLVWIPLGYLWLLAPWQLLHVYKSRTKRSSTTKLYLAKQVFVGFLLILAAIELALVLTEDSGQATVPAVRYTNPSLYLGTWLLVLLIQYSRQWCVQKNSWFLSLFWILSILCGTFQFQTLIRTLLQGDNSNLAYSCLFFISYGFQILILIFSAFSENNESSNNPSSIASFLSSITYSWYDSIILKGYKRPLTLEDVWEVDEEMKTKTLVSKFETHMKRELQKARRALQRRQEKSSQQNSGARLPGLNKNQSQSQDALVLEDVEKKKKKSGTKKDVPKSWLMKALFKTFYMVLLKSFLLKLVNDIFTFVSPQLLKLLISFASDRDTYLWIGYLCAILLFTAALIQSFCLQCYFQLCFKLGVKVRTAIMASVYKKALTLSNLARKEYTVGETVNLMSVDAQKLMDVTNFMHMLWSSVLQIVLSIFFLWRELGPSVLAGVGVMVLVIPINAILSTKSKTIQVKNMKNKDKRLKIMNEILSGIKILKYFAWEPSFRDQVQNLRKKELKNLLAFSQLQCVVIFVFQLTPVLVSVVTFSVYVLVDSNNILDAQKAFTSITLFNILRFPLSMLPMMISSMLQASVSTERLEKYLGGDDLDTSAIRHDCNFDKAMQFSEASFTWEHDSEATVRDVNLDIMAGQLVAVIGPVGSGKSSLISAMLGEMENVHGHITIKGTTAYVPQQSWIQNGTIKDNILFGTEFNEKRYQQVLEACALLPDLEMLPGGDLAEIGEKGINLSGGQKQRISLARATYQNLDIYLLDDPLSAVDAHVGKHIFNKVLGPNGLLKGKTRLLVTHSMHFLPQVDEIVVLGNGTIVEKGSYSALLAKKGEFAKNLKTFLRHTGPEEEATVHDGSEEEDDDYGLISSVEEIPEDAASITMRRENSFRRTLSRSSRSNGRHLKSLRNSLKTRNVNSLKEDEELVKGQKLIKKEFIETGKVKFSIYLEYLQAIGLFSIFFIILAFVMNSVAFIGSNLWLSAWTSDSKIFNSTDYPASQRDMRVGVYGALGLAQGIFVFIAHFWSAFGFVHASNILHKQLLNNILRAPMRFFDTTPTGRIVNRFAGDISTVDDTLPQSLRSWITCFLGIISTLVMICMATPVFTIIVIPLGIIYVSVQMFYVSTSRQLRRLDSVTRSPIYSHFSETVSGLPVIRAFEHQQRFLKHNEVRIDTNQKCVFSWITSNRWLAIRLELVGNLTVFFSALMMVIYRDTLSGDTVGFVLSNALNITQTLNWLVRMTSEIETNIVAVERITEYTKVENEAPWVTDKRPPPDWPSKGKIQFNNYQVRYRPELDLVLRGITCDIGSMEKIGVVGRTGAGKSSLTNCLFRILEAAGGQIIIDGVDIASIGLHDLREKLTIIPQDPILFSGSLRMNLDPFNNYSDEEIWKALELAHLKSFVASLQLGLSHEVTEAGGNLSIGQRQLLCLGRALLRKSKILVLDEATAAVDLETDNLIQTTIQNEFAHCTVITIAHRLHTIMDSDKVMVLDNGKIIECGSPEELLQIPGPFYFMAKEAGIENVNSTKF
compound,measurement,setting,value
"CCN(CC)CCC(=O)Oc1ccc2c(c1)CC[C@@H]1[C@@H]2CC[C@]2(C)[C@@H](O)CC[C@@H]12.Cl [3-DEAPE2HCl, 3-N,N-diethylamino propionyl ester hydrochloride]",water solubility of estradiol ester prodrug,[1]; dimethylglycine ester where the label is estradiol,about 20 mg/ml
"CN(C)CCCC(=O)Oc1ccc2c(c1)CC[C@@H]1[C@@H]2CC[C@]2(C)[C@@H](O)CC[C@@H]12.Cl [3-DMABE2-HCl, 3-N,N dimethylamino butyl ester HCl]",peak cerebrospinal fluid (CSF) concentration of estradiol,[2],about 66 ng/ml
same,peak CSF concentration (molar),[3],~0.15 µM
CCCN(CCC)C1CCc2c(O)cccc2C1 (centres unmarked) [5-OH-DPAT],Flux,[4]; 0.5 mg/ml,78.4 nmol/cm/h
same,Flux,[4]; 1.3 mg/ml,187.6 nmol/cm/h
same,Flux,[4]; 2.3 mg/ml,318.2 nmol/cm/h
same,Flux,[4],90 μg/(cm^2 · h)
"CN(C)CCCC(=O)O[C@H]1CC[C@H]2[C@@H]3CCc4cc(O)ccc4[C@H]3CC[C@]12C.Cl [17-DMABE2HCl, 17-N,N dimethylamino butyl ester HCl]",peak cerebrospinal fluid (CSF) concentration of estradiol,[2],about 30 ng/ml
same,shelf life of nasal spray solution,"[5]; pH 4, 25° C.",approximately 19 months
same,peak CSF concentration (molar),[3],about 0.075 μM
C[C@]12CC[C@@H]3c4ccc(O)cc4CC[C@H]3[C@@H]1CC[C@@H]2O [17β-estradiol],"CSF concentration of 17B-estradiol, intranasal versus comparable intravenous dose of the prodrug",[2]; dimethylglycine ester prodrug,5-8 fold
same,octanol/water partition coefficient log P,[6],3.1-4.0
Nc1nc2c(ncn2COCCO)c(=O)[nH]1 [Acyclovir],solubility in water of the unmodified compound,[1],1400 µg/mL
CC(C)NCC(O)COc1ccc(CC(N)=O)cc1 (centres unmarked) [Atenolol],Flux,[4],400 μg/(cm^2 · h)
NC(=O)N1c2ccccc2C=Cc2ccccc21 [Carbamazepine],Peak Brain Tissue,"[7]; Intranasal, 0.2 mg/kg",12 µg/g
same,Peak Brain Tissue,"[7]; Intravenous, 8.0 mg/kg",4 µg/g
same,Peak Brain Tissue,"[7]; Oral, 16 mg/kg",3 µg/g
same,"Peak Brain Tissue, ~uM","[8]; Intranasal, 0.2 mg/kg",~48 µM
same,"Peak Brain Tissue, ~uM","[8]; Intravenous, 8.0 mg/kg",~16 µM
same,"Peak Brain Tissue, ~uM","[8]; Oral, 16 mg/kg",~12 µM
same,"peak brain tissue concentration, intranasal versus oral dosing","[8]; in vivo, po",about four times higher
C[C@]12CC[C@H](O)CC1=CC[C@@H]1[C@@H]2CC[C@]2(C)C(=O)CC[C@@H]12 [DHEA],octanol/water partition coefficient log P,[6],1.54
CCCCOC(=O)[C@@H](N)Cc1ccc(O)c(O)c1 [L-dopa butyl ester],estimated time for 10% decomposition,"[5]; pH 4.4, 0.05M phosphate buffer, 10° C.",2.7 years
CC(C)c1cccc(C(C)C)c1OC(=O)[C@@H]1CCCN1 [L-proline ester of propofol],solubility of the prodrug,[1],about 1.1 mmol/ml
[Mg+2] [Mg^+2],inhibition of enzymatic glucuronidation activity,[9],about 85%
O=C(O)c1ccccc1O [Salicylic Acid],Flux,[4],41.17 μg/(cm^2 · h)
CC(C)(C)NC[C@H](O)COc1nsnc1N1CCOCC1 [Timolol],Flux,"[4]; reservoir 10 mg/ml, 2 ml",200 μg/(cm^2 · h)
same,Flux,"[4]; reservoir 20 mg/ml, 2 ml",250 μg/(cm^2 · h)
"COc1cc(/C=C/C(=O)COC(=O)/C=C/c2ccc(O)c(OC)c2)ccc1O [compound 31, 4″-(3′″-methoxy-4′″-hydroxyphenyl)-2″-oxo-3″-enebutanyl3-(3′-methoxy-4′hydroxyphenyl)propenoate]",anti-βA (1-42) ED50,[10],2.0 ± 0.4 µg/mL
same,fold more potent than curcumin as neuroprotectant against beta amyloid,[11]; analysis of the Park data,~5 fold
same,anti-βA (25-35) ED50,[12],1.0 ± 0.3 µg/mL
"COc1cc(C=CC(=O)CC(=O)C=Cc2ccc(O)cc2)ccc1O [compound 32, 1-(4-hydroxy-3-methoxyphenyl)-7-(4-hydroxyphenyl)-1,6-heptadiene-3,5-dione]",anti-BA (1-42) ED50,[10],4.2 ± 0.3 µg/mL
same,anti-βA (1-42) ED50,[10],5.0 ± 0.5 µg/mL
same,fold more potent than curcumin as neuroprotectant against beta amyloid,[11]; analysis of the Kim data,~1.5 fold
same,anti-BA (25-35) ED50,[12],4.7 ± 0.1 µg/mL
same,anti-βA (25-35) ED50,[12],4.0 ± 0.5 µg/mL
"O=C(C=Cc1ccc(O)cc1)CC(=O)C=Cc1ccc(O)cc1 [compound 33, 1,7-bis(4-hydroxyphenyl)-1,6-heptadiene-3,5-dione]",anti-BA (1-42) ED50,[10],3.0 ± 0.3 µg/mL
same,anti-βA (1-42) ED50,[10],3.5 ± 0.7 µg/mL
same,fold more potent than curcumin as neuroprotectant against beta amyloid,[11]; analysis of the Kim data,~2 fold
same,fold more potent than curcumin as neuroprotectant against beta amyloid,[11]; analysis of the Park data,3 fold
same,anti-BA (25-35) ED50,[12],3.5 ± 0.2 µg/mL
same,anti-βA (25-35) ED50,[12],2.0 ± 0.6 µg/mL
same,optimum concentration,[13],0.1 µM
"O=C(C=Cc1ccc(O)cc1)CC(=O)CCc1ccc(O)cc1 [compound 34, 1,7-bis(4-hydroxyphenyl)-1-heptene-3,5-dione]",anti-βA (1-42) ED50,[10],1.0 ± 0.3 µg/mL
same,fold more potent than curcumin as neuroprotectant against beta amyloid,[11]; analysis of the Park data,~10 fold
same,anti-βA (25-35) ED50,[12],0.5 ± 0.2 µg/mL
"COc1cc(/C=C/C(=O)CC(=O)/C=C/c2ccc(O)c(OC)c2)ccc1O [curcumin, (E,E)-1,7-bis(4-hydroxy-3-methoxyphenyl)-1,6-heptadiene-3,5,-dione]",peak curcumin concentration in brain tissue (molar),[14],about 0.40 uM
same,predicted flux,[15]; divalent curcumin salt,about 800 μg/(cm^2·h)
same,predicted plasma concentration,[15]; divalent curcumin salt,about 0.3 μM
same,predicted flux,[15]; [26],about 400 μg/(cm^2·h)
same,predicted plasma concentration,[15]; [26],about 60 ng/ml; also recorded: about 0.14 μM
same,predicted flux,[15]; worst case,about 35 μg/(cm^2·h)
same,predicted plasma concentration,[15]; worst case,about 5 ng/ml
same,predicted plasma concentration,"[15]; worst case, flux 35, 50 cm^2, clearance 350 L/hr",0.012 µM
same,blood brain barrier crossing and plaque binding,[16],crossed the blood brain barrier and bound amyloid plaques
same,AUC,"[17]; Shoba, Oral + piperine",80 ng·h/mL
same,AUC,"[17]; Shoba, Oral Dosing",4 ng·h/mL
same,serum Cmax,"[17]; Shoba, 2 g/day oral curcumin supplemented with piperine, second of two values",180 ng/mL
same,serum Cmax,"[17]; Shoba, 2 g/day oral curcumin, first of two values",6 ng/mL
same,AUC,"[17]; Vareed, Oral Dosing",~30 ng·h/mL
same,area-under-the-curve (AUC),"[17]; dose of about 11 g, healthy volunteers, conjugated curcumin (Vareed)",about 30 μg/ml·hr
same,clearance,[17]; oral dosing of curcumin plus piperine (Shoba),7.33 L/h
same,inhibition of UGT1A1,[18],about 95%
same,solubility in water of the unmodified compound,[1],about 0.004 mg/ml
same,IC50,[19],5000 nM
same,octanol/water partition coefficient log P,[6],~3
same,clearance,[20]; curcumin alone (Shoba),495 L/h
same,clearance,[20]; curcumin with piperine (Shoba),713 L/h
CCCCCCC(C)(C)c1cc(O)c2c(c1)OC(C)(C)[C@H]1CC=C(CO)C[C@H]21 [dexanabinol],Parent Solubility,[1],2000 to 7000 µg/mL
OCCOCCN1CCN(C(c2ccccc2)c2ccc(Cl)cc2)CC1 (centres unmarked) [hydroxyzine.HCl],octanol:water partition coefficient log Doct/pH 7.4,[6]; pH 7.4,2.37-2.87
Oc1ccc(C=Cc2cc(O)cc(O)c2)cc1 [resveratrol],Ki,[21],102 nM
same,concentration protecting against nitric oxide related neurotoxicity,[22],5 to 25 µM
same,oral bioavailability,[23],about zero
same,concentration with neuroprotective effect against beta amyloid-induced neurotoxicity,[24],20 µM
same,solubility in water,[1],< 10 mM
same,octanol/water partition coefficient log P,[6],about 3.14
"C[C@]12CC[C@H]3[C@@H](CCC4=CC(=O)CC[C@@]43C)[C@@H]1CC[C@@H]2OC(=O)[C@@H]1CCC[N+]1(C)C [testosterone-17β-stachydrine ester, chloride salt]",iontophoretic flux,[4],about 40 μg/(cm^2·h)
C[C@]12CC[C@H]3[C@@H](CCC4=CC(=O)CC[C@@]43C)[C@@H]1CC[C@@H]2O [testosterone],Flux,[4],40 μg/(cm^2 · h)
same,Parent Solubility,[1],10 µg/mL
Triton X-100,inhibition of several UGT enzymes,[25],nearly fully inhibited
